# Test results as given in patent publication US20170260178A1 (SPERO GYRASE, INC., priority 2012, published 2017).
# How the values were obtained:
# [1] = system: S. aureus (ATCC 29213); assay: Bacterial assay: MIC against S. aureus; format: cell-based, Staphylococcus aureus; settings: for MIC: Staphylococcus aureus, ATCC29213, read-out: minimal inhibitory concentration (MIC)
# [2] = system: S. pyogenes (ATCC 51339); assay: Bacterial assay: MIC against S. pyogenes; format: cell-based, Streptococcus pyogenes; settings: Streptococcus pyogenes, ATCC51339, read-out: minimal inhibitory concentration (MIC)
Structure (SMILES),MIC [1] [µg/mL],MIC [2] [µg/mL],minimal inhibitory concentration (MIC) ([1]; S. aureus ATCC 29213) [µg/mL]
"CCNC(=O)Nc1nc2cc(-c3cnc(C(C)(C)O)nc3)cc(-c3cc(CN4CCN(C)CC4)ccn3)c2s1 [Compound 159, 1-ethyl-3-[5-[2-(1-hydroxy-1-methyl-ethyl)pyrimidin-5-yl]-7-[4-[(4-methylpiperazin-1-yl)methyl]-2-pyridyl]-1,3-benzothiazol-2-yl]urea]",2,≤ 1,–
"CCNC(=O)Nc1nc2cc(-c3cnc(C(C)(C)O)nc3)c(OCCO)cc2s1 [Compound 186, 1-ethyl-3-[6-(2-hydroxyethoxy)-5-[2-(1-hydroxy-1-methyl-ethyl)pyrimidin-5-yl]-1,3-benzothiazol-2-yl]urea]",4,2,–
"CCNC(=O)Nc1nc2cc(-c3cnc(C(C)(C)O)nc3)cc(-c3cc(N4CCC(C)(C(=O)O)CC4)ccn3)c2s1 [Compound 50, 1-[2-[2-(ethylcarbamoylamino)-5-[2-(1-hydroxy-1-methyl-ethyl)pyrimidin-5-yl]-1,3-benzothiazol-7-yl]-4-pyridyl]-4-methyl-piperidine-4-carboxylic acid]",≤ 1,≤ 1,–
"CCNC(=O)Nc1nc2cc(-c3cnc(C(C)(C)O)nc3)cc(-c3nccc(NCCO)n3)c2s1 [Compound 85, 1-ethyl-3-[7-[4-(2-hydroxyethylamino)pyrimidin-2-yl]-5-[2-(1-hydroxy-1-methyl-ethyl)pyrimidin-5-yl]-1,3-benzothiazol-2-yl]urea]",2,≤ 1,–
"CCNC(=O)Nc1nc2cc(-c3cnc(C(C)O)nc3)c(OCC3CCCO3)cc2s1 (stereo not drawn) [Compound 193, 1-ethyl-3-[5-[2-[1-hydroxyethyl]pyrimidin-5-yl]-6-(tetrahydrofuran-2-ylmethoxy)-1,3-benzothiazol-2-yl]urea]",≤ 1,2,–
"CCNC(=O)Nc1nc2cc(-c3cnc(C(C)(C)O)nc3)cc(OC)c2s1 [Compound 12, 1-ethyl-3-[5-[2-(1-hydroxy-1-methyl-ethyl)pyrimidin-5-yl]-7-methoxy-1,3-benzothiazol-2-yl]urea]",≤ 1,≤ 1,–
"CCNC(=O)Nc1nc2cc(-c3cnc(C(C)(C)O)nc3)cc(-c3cc(CN4CCC(F)(F)CC4)ccn3)c2s1 [Compound 156, 1-[7-[4-[(4,4-difluoro-1-piperidyl)methyl]-2-pyridyl]-5-[2-(1-hydroxy-1-methyl-ethyl)pyrimidin-5-yl]-1,3-benzothiazol-2-yl]-3-ethyl-urea]",≤ 1,≤ 1,–
"CCNC(=O)Nc1nc2cc(-c3cnc(C(C)(C)O)nc3)cc(-c3cc(CN4CCC(C)(O)C4)ccn3)c2s1 (stereo not drawn) [Compound 67, 1-ethyl-3-[5-[2-(1-hydroxy-1-methyl-ethyl)pyrimidin-5-yl]-7-[4-[(3-hydroxy-3-methyl-pyrrolidin-1-yl)methyl]-2-pyridyl]-1,3-benzothiazol-2-yl]urea]",≤ 1,≤ 1,–
CCNC(=O)Nc1nc2cc(-c3ccc(C(C)(C)O)nc3)c(O)c(CN(C)C)c2s1 [Compound 41],16,16,–
"CCNC(=O)Nc1nc2cc(-c3cnc(C(C)(C)O)nc3)cc(-c3cccc(N4CCC(C)(C(=O)O)CC4)n3)c2s1 [Compound 51, 1-[6-[2-(ethylcarbamoylamino)-5-[2-(1-hydroxy-1-methyl-ethyl)pyrimidin-5-yl]-1,3-benzothiazol-7-yl]-2-pyridyl]-4-methyl-piperidine-4-carboxylic acid]",4,≤ 1,–
"CCNC(=O)Nc1nc2cc(-c3cnc(C(C)(C)O)nc3)cc(-c3ccnc(N4CCC(C)(C(=O)O)CC4)n3)c2s1 [Compound 52, 1-[4-[2-(ethylcarbamoylamino)-5-[2-(1-hydroxy-1-methyl-ethyl)pyrimidin-5-yl]-1,3-benzothiazol-7-yl]pyrimidin-2-yl]-4-methyl-piperidine-4-carboxylic acid]",2,≤ 1,–
"CCNC(=O)Nc1nc2cc(-c3cnc(C4(O)CN(C(=O)OC(C)(C)C)C4)nc3)cc(-c3ccccn3)c2s1 [Compound 162, tert-butyl 3-[5-[2-(ethylcarbamoylamino)-7-(2-pyridyl)-1,3-benzothiazol-5-yl]pyrimidin-2-yl]-3-hydroxy-azetidine-1-carboxylate]",≤ 1,≤ 1,–
"CCNC(=O)Nc1nc2cc(-c3cnc(C(C)(C)O)nc3)cc(-c3nccc(NCCN4CCOCC4)n3)c2s1 [Compound 91, 1-ethyl-3-[5-[2-(1-hydroxy-1-methyl-ethyl)pyrimidin-5-yl]-7-[4-(2-morpholinoethylamino)pyrimidin-2-yl]-1,3-benzothiazol-2-yl]urea]",2,≤ 1,–
"CCNC(=O)Nc1nc2cc(-c3cnc(C(C)O)nc3)cc(-c3cc(N4CCC(C)(C(=O)O)CC4)ncn3)c2s1 (stereo not drawn) [Compound 109, 1-[6-[2-(ethylcarbamoylamino)-5-[2-(1-hydroxyethyl)pyrimidin-5-yl]-1,3-benzothiazol-7-yl]pyrimidin-4-yl]-4-methyl-piperidine-4-carboxylic acid]",2,≤ 1,–
"CCNC(=O)Nc1nc2cc(-c3ccc(C(O)C(F)(F)F)nc3)cc(-c3cc(CN4CCOCC4)ccn3)c2s1 (stereo not drawn) [Compound 108, 1-ethyl-3-[7-[4-(morpholinomethyl)-2-pyridyl]-5-[6-(2,2,2-trifluoro-1-hydroxy-ethyl)-3-pyridyl]-1,3-benzothiazol-2-yl]urea]",≤ 1,≤ 1,–
"CCNC(=O)Nc1nc2cc(-c3cnc(C(C)O)nc3)cc(-c3nccc(N4CC(OC)C4)n3)c2s1 (stereo not drawn) [Compound 93, 1-ethyl-3-[5-[2-(1-hydroxyethyl)pyrimidin-5-yl]-7-[4-(3-methoxyazetidin-1-yl)pyrimidin-2-yl]-1,3-benzothiazol-2-yl]urea]",≤ 1,≤ 1,–
"CCNC(=O)Nc1nc2cc(-c3cnc(C(C)(C)O)nc3)cc(-c3cc(CN4CCC(F)(F)C4)ccn3)c2s1 [Compound 34, 1-[7-[4-[(3,3-difluoropyrrolidin-1-yl)methyl]-2-pyridyl]-5-[2-(1-hydroxy-1-methyl-ethyl)pyrimidin-5-yl]-1,3-benzothiazol-2-yl]-3-ethyl-urea]",≤ 1,≤ 1,–
"CCNC(=O)Nc1nc2cc(-c3cnc(C(C)O)nc3)cc(-c3cc(CN4CC(C)(O)C4)ccn3)c2s1 (stereo not drawn) [Compound 66, 1-ethyl-3-[5-[2-(1-hydroxyethyl)pyrimidin-5-yl]-7-[4-[(3-hydroxy-3-methyl-azetidin-1-yl)methyl]-2-pyridyl]-1,3-benzothiazol-2-yl]urea]",2,≤ 1,–
"CCNC(=O)Nc1nc2cc(-c3cnc(C4(O)CCNCC4)nc3)cc(-c3ccccn3)c2s1 [Compound 174, 1-ethyl-3-[5-[2-(4-hydroxy-4-piperidyl)pyrimidin-5-yl]-7-(2-pyridyl)-1,3-benzothiazol-2-yl]urea]",8,2,–
"CCNC(=O)Nc1nc2cc(-c3cnc(C(C)(C)O)nc3)c(NCCOC)cc2s1 [Compound 150, 1-ethyl-3-[5-[2-(1-hydroxy-1-methyl-ethyl)pyrimidin-5-yl]-6-(2-methoxyethylamino)-1,3-benzothiazol-2-yl]urea]",2,8,–
"CCNC(=O)Nc1nc2cc(-c3cnc(C(C)(C)O)nc3)cc(N3CCOCC3)c2s1 [Compound 151, 1-ethyl-3-[5-[2-(1-hydroxy-1-methyl-ethyl)pyrimidin-5-yl]-7-morpholino-1,3-benzothiazol-2-yl]urea]",2,2,–
"CCNC(=O)Nc1nc2cc(-n3cnc(C(C)(C)O)c3)cc(-c3ccccn3)c2s1 [Compound 11, 1-ethyl-3-[5-[4-(1-hydroxy-1-methyl-ethyl)imidazol-1-yl]-7-(2-pyridyl)-1,3-benzothiazol-2-yl]urea]",4,≤ 1,–
"CCNC(=O)Nc1nc2cc(-c3cnc(C(O)(CC)CC)nc3)cc(-c3ccccn3)c2s1 [Compound 98, 1-ethyl-3-[5-[2-(1-ethyl-1-hydroxy-propyl)pyrimidin-5-yl]-7-(2-pyridyl)-1,3-benzothiazol-2-yl]urea]",≤ 1,≤ 1,–
"CCNC(=O)Nc1nc2cc(-c3ccc(C(O)c4nccn4C)nc3)cc(-c3ccccn3)c2s1 (stereo not drawn) [Compound 24, 1-ethyl-3-[5-[6-[hydroxy-(1-methylimidazol-2-yl)methyl]-3-pyridyl]-7-(2-pyridyl)-1,3-benzothiazol-2-yl]urea]",≤ 1,≤ 1,–
"CCNC(=O)Nc1nc2cc(-c3cnc(C(C)(C)O)nc3)cc(-c3nccc(N4CC(C)(O)C4)n3)c2s1 [Compound 86, 1-ethyl-3-[7-[4-(3-hydroxy-3-methyl-azetidin-1-yl)pyrimidin-2-yl]-5-[2-(1-hydroxy-1-methyl-ethyl)pyrimidin-5-yl]-1,3-benzothiazol-2-yl]urea]",8,≤ 1,–
"CCNC(=O)Nc1nc2cc(-c3cnc(C(C)(C)O)nc3)cc(-c3cc(CNCCO)ccn3)c2s1 [Compound 196, 1-ethyl-3-[7-[4-[(2-hydroxyethylamino)methyl]-2-pyridyl]-5-[2-(1-hydroxy-1-methyl-ethyl)pyrimidin-5-yl]-1,3-benzothiazol-2-yl]urea]",2,–,–
"CCNC(=O)Nc1nc2cc(-c3cnc(C4(O)CNC4)nc3)cc(-c3ccccn3)c2s1 [Compound 163, 1-ethyl-3-[5-[2-(3-hydroxyazetidin-3-yl)pyrimidin-5-yl]-7-(2-pyridyl)-1,3-benzothiazol-2-yl]urea]",–,8,–
"CCNC(=O)Nc1nc2cc(-c3cnc(C(C)O)nc3)c(N3CCOCC3)cc2s1 (stereo not drawn) [Compound 194, 1-ethyl-3-[5-[2-[1-hydroxyethyl]pyrimidin-5-yl]-6-morpholino-1,3-benzothiazol-2-yl]urea]",16,–,–
"CCNC(=O)Nc1nc2cc(-c3cnc(N4CCC(C)(C(=O)O)CC4)nc3)cc(-c3ccc(C(C)(C)O)cn3)c2s1 [Compound 99, 1-[5-[2-(ethylcarbamoylamino)-7-[5-(1-hydroxy-1-methy-ethyl)-2-pyridyl]-1,3-benzothiazol-5-yl]pyrimidin-2-yl]-4-methyl-piperidine-4-carboxylic acid]",–,–,2
